From PubChem BioAssay AID256 (DTP/NCI, 2004)
Where “and” joins values, the source holds several entries; their conditions need not be identical. Equal entries are not always repeated. Toxic doses and inconclusive results are not listed.

System: CD2F1 mice, L1210 leukemia ip, survival T/C
Assay: NCI In Vivo Anticancer Drug Screen. Data for tumor model L1210 Leukemia (intraperitoneal) in CD2F1 (CDF1) mice
Details: higher = longer survival
Summary of the method: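 In this screen, transplantable tumors were grown in mice given either the compound or its vehicle. Results were expressed as the treated measurement relative to the control measurement.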

[1] = endpoint: mean survival time, dose: 100.0 mg/kg/injection, schedule: Q01DX009 (ip), vehicle: saline with Tween-80
[2] = endpoint: mean survival time, dose: 100.0 mg/kg/injection, schedule: Q04DX003 (ip), vehicle: saline with Tween-80
[3] = endpoint: mean survival time, dose: 200.0 mg/kg/injection, schedule: Q01DX009 (ip), vehicle: saline with Tween-80
[4] = endpoint: mean survival time, dose: 200.0 mg/kg/injection, schedule: Q04DX003 (ip), vehicle: saline with Tween-80
[5] = endpoint: mean survival time, dose: 400.0 mg/kg/injection, schedule: Q01DX009 (ip), vehicle: saline with Tween-80
[6] = endpoint: mean survival time, dose: 400.0 mg/kg/injection, schedule: Q04DX003 (ip), vehicle: saline with Tween-80
[7] = endpoint: mean survival time, dose: 100.0 mg/kg/injection, schedule: Q04DX002 (ip), vehicle: saline with Tween-80
[8] = endpoint: mean survival time, dose: 200.0 mg/kg/injection, schedule: Q04DX002 (ip), vehicle: saline with Tween-80
[9] = endpoint: mean survival time, dose: 400.0 mg/kg/injection, schedule: Q04DX002 (ip), vehicle: saline with Tween-80
[10] = endpoint: mean survival time, dose: 25.0 mg/kg/injection, schedule: Q04DX003 (ip), vehicle: Klucel (hydroxypropylcellulose) (HPC)
[11] = endpoint: mean survival time, dose: 50.0 mg/kg/injection, schedule: Q04DX003 (ip), vehicle: Klucel (hydroxypropylcellulose) (HPC)
[12] = endpoint: mean survival time, dose: 100.0 mg/kg/injection, schedule: Q01DX001 (ip), vehicle: saline with Tween-80
[13] = endpoint: mean survival time, dose: 400.0 mg/kg/injection, schedule: Q01DX001 (ip), vehicle: saline with Tween-80
[14] = endpoint: mean survival time, dose: 50.0 mg/kg/injection, schedule: Q01DX009 (ip), vehicle: saline
[15] = endpoint: mean survival time, dose: 100.0 mg/kg/injection, schedule: Q01DX009 (ip), vehicle: saline

SMILES: Cc1cn(C2CC(O)C(CO)O2)c(=O)nc1N1CCSCC1 (stereo not drawn)
- T/C (endpoint: median survival time, dose: 12.5 mg/kg/injection, schedule: Q01DX005 (ip), vehicle: distilled water + Tween-80): 101 % of control
- T/C (endpoint: median survival time, dose: 25.0 mg/kg/injection, schedule: Q01DX005 (ip), vehicle: distilled water + Tween-80): 103 % of control
- T/C (endpoint: median survival time, dose: 50.0 mg/kg/injection, schedule: Q01DX005 (ip), vehicle: distilled water + Tween-80): 102 % of control
- T/C (endpoint: median survival time, dose: 100.0 mg/kg/injection, schedule: Q01DX005 (ip), vehicle: distilled water + Tween-80): 101 % of control
- T/C (endpoint: median survival time, dose: 200.0 mg/kg/injection, schedule: Q01DX005 (ip), vehicle: distilled water + Tween-80): 102 % of control

SMILES: COCCCNC(=O)C1=CCCN(C)C1
- T/C (endpoint: mean survival time, dose: 100.0 mg/kg/injection, schedule: Q04DX003 (ip), vehicle: saline): 95 % of control
- T/C (endpoint: mean survival time, dose: 200.0 mg/kg/injection, schedule: Q04DX003 (ip), vehicle: saline): 96 % of control
- T/C (endpoint: mean survival time, dose: 400.0 mg/kg/injection, schedule: Q04DX003 (ip), vehicle: saline): 94 % of control

SMILES: COc1ccccc1NC(C)=O
- T/C [1]: 96 % of control
- T/C [2]: 101 % of control
- T/C [3]: 98 % of control
- T/C [4]: 96 % of control
- T/C [5]: 96 % of control
- T/C [6]: 101 % of control

SMILES: CCCCCCCCCCCCCCCCCC(=O)Nc1ccn(C2OC(CO)C(O)C2O)c(=O)n1 (stereo not drawn)
- T/C (endpoint: mean survival time, dose: 25.0 mg/kg/injection, schedule: Q04DX002 (ip), vehicle: saline with Tween-80): 229 % of control and 252 % of control
- T/C (endpoint: mean survival time, dose: 50.0 mg/kg/injection, schedule: Q04DX002 (ip), vehicle: saline with Tween-80): 271 % of control and 325 % of control
- T/C (endpoint: mean survival time, dose: 75.0 mg/kg/injection, schedule: Q04DX002 (ip), vehicle: saline with Tween-80): 365 % of control
- T/C [7]: 273 % of control and 313 % of control
- T/C [8]: 122 % of control
- T/C [9]: 110 % of control

SMILES: Clc1ccc(Br)c2c1CCC2
- T/C (endpoint: mean survival time, dose: 100.0 mg/kg/injection, schedule: Q04DX003 (ip), vehicle: acetone): 101 % of control
- T/C (endpoint: mean survival time, dose: 200.0 mg/kg/injection, schedule: Q04DX003 (ip), vehicle: acetone): 100 % of control

SMILES: CC(C)(O)C#CC(C)(C)OC(O)C(Cl)(Cl)Cl (stereo not drawn)
- T/C [7]: 96 % of control
- T/C [8]: 101 % of control
- T/C [9]: 93 % of control

SMILES: CCN(C(=O)NC)c1cc(C)ccc1OC
- T/C [1]: 87 % of control
- T/C [3]: 87 % of control
- T/C [5]: 98 % of control

SMILES: CC(=O)OC1C=C2CCC3C(CCC4(C)C(OC(C)=O)CCC34)C2(C)CC1 (stereo not drawn)
- T/C (endpoint: mean survival time, dose: 12.5 mg/kg/injection, schedule: Q04DX003 (ip), vehicle: Klucel (hydroxypropylcellulose) (HPC)): 106 % of control
- T/C [10]: 103 % of control
- T/C [11]: 106 % of control

SMILES: OC1CCc2c(Cl)sc(Cl)c21 (stereo not drawn)
- T/C (endpoint: mean survival time, dose: 25.0 mg/kg/injection, schedule: Q01DX001 (ip), vehicle: saline with Tween-80): 92 % of control
- T/C (endpoint: mean survival time, dose: 50.0 mg/kg/injection, schedule: Q01DX001 (ip), vehicle: saline with Tween-80): 98 % of control
- T/C [12]: 98 % of control

SMILES: CCCCCCCCCCCCCCCCCCSc1ccc(Br)cc1
- T/C [12]: 92 % of control
- T/C [13]: 86 % of control

SMILES: CC(C)(C)C1=CC(=CN(O)C(C)(C)C)C=C(C(C)(C)C)C1=O
- T/C [12]: 100 % of control
- T/C (endpoint: mean survival time, dose: 200.0 mg/kg/injection, schedule: Q01DX001 (ip), vehicle: saline with Tween-80): 103 % of control
- T/C [13]: 100 % of control

SMILES: Cc1ccc(Nc2ccc(Nc3ccc(C)cc3)c3c2C(=O)c2ccccc2C3=O)cc1
- T/C [1]: 86 % of control
- T/C [3]: 89 % of control
- T/C [5]: 89 % of control

SMILES: Cc1ccc[n+](CCCCCCCC[n+]2cccc(C)c2)c1
- T/C (endpoint: mean survival time, dose: 0.5 mg/kg/injection, schedule: Q04DX003 (ip), vehicle: saline): 100 % of control
- T/C (endpoint: mean survival time, dose: 1.0 mg/kg/injection, schedule: Q04DX003 (ip), vehicle: saline): 103 % of control
- T/C (endpoint: mean survival time, dose: 2.0 mg/kg/injection, schedule: Q04DX003 (ip), vehicle: saline): 106 % of control

SMILES: CCCCCCCCCCCC(=O)NC(=S)Nc1ncccn1
- T/C (endpoint: mean survival time, dose: 100.0 mg/kg/injection, schedule: Q01DX001 (ip), vehicle: other): 93 % of control
- T/C (endpoint: mean survival time, dose: 100.0 mg/kg/injection, schedule: Q01DX009 (ip), vehicle: other): 91 % of control and 97 % of control
- T/C (endpoint: mean survival time, dose: 100.0 mg/kg/injection, schedule: Q04DX002 (ip), vehicle: other): 98 % of control
- T/C (endpoint: mean survival time, dose: 200.0 mg/kg/injection, schedule: Q01DX001 (ip), vehicle: other): 87 % of control
- T/C (endpoint: mean survival time, dose: 200.0 mg/kg/injection, schedule: Q01DX009 (ip), vehicle: other): 92 % of control and 93 % of control
- T/C (endpoint: mean survival time, dose: 200.0 mg/kg/injection, schedule: Q04DX002 (ip), vehicle: other): 102 % of control
- T/C (endpoint: mean survival time, dose: 400.0 mg/kg/injection, schedule: Q01DX001 (ip), vehicle: other): 93 % of control
- T/C (endpoint: mean survival time, dose: 400.0 mg/kg/injection, schedule: Q01DX009 (ip), vehicle: other): 92 % of control and 101 % of control
- T/C (endpoint: mean survival time, dose: 400.0 mg/kg/injection, schedule: Q04DX002 (ip), vehicle: other): 87 % of control

SMILES: COc1ccc(C(=O)CC(=O)Nc2ccc([N+](=O)[O-])cc2)cc1
- T/C (endpoint: mean survival time, dose: 100.0 mg/kg/injection, schedule: Q01DX009 (ip), vehicle: Klucel (hydroxypropylcellulose) (HPC)): 98 % of control
- T/C [2]: 107 % of control
- T/C (endpoint: mean survival time, dose: 200.0 mg/kg/injection, schedule: Q01DX009 (ip), vehicle: Klucel (hydroxypropylcellulose) (HPC)): 97 % of control
- T/C [4]: 102 % of control
- T/C (endpoint: mean survival time, dose: 400.0 mg/kg/injection, schedule: Q01DX009 (ip), vehicle: Klucel (hydroxypropylcellulose) (HPC)): 97 % of control
- T/C [6]: 101 % of control

SMILES: O=C1CC2CCC1C2 (stereo not drawn)
- T/C [10]: 97 % of control
- T/C [11]: 98 % of control
- T/C (endpoint: mean survival time, dose: 100.0 mg/kg/injection, schedule: Q04DX003 (ip), vehicle: Klucel (hydroxypropylcellulose) (HPC)): 97 % of control

SMILES: CCCc1c(C)[nH]c2ccc(C)cc12
- T/C [14]: 102 % of control
- T/C [15]: 104 % of control
- T/C [2]: 101 % of control
- T/C [4]: 86 % of control

SMILES: COC(=O)c1ccc(N=NN(C)COC(C)=O)cc1
- T/C (endpoint: median survival time, dose: 15.0 mg/kg/injection, schedule: Q01DX005 (ip), vehicle: Klucel (hydroxypropylcellulose) (HPC)): 109 % of control
- T/C (endpoint: median survival time, dose: 30.0 mg/kg/injection, schedule: Q01DX005 (ip), vehicle: Klucel (hydroxypropylcellulose) (HPC)): 113 % of control
- T/C (endpoint: median survival time, dose: 60.0 mg/kg/injection, schedule: Q01DX005 (ip), vehicle: Klucel (hydroxypropylcellulose) (HPC)): 114 % of control
- T/C (endpoint: median survival time, dose: 240.0 mg/kg/injection, schedule: Q01DX005 (ip), vehicle: Klucel (hydroxypropylcellulose) (HPC)): 182 % of control

SMILES: O=C1CCCCc2c1ccc(O)c2[N+](=O)[O-]
- T/C (endpoint: mean survival time, dose: 12.5 mg/kg/injection, schedule: Q01DX009 (ip), vehicle: saline): 113 % of control
- T/C (endpoint: mean survival time, dose: 25.0 mg/kg/injection, schedule: Q01DX009 (ip), vehicle: saline): 106 % of control
- T/C [14]: 97 % of control

SMILES: COCCN1CCC(C)(CO)C1 (stereo not drawn)
- T/C [15]: 94 % of control
- T/C (endpoint: mean survival time, dose: 200.0 mg/kg/injection, schedule: Q01DX009 (ip), vehicle: saline): 94 % of control
- T/C (endpoint: mean survival time, dose: 400.0 mg/kg/injection, schedule: Q01DX009 (ip), vehicle: saline): 100 % of control

SMILES: O=C(C1=CN(CCCO)CCC1)c1cc2ccccc2n1S(=O)(=O)c1ccccc1
- T/C [2]: 104 % of control
- T/C [4]: 90 % of control
- T/C [6]: 97 % of control

SMILES: CN1CCN(CCCN2C(=O)C3CC=CCC3C2=O)CC1 (stereo not drawn)
- T/C (endpoint: mean survival time, dose: 100.0 mg/kg/injection, schedule: Q01DX001 (ip), vehicle: saline): 102 % of control
- T/C (endpoint: mean survival time, dose: 200.0 mg/kg/injection, schedule: Q01DX001 (ip), vehicle: saline): 93 % of control

SMILES: CN(C)CC1CCCCC(CN(C)C)C1=O (stereo not drawn)
- T/C (endpoint: mean survival time, dose: 75.0 mg/kg/injection, schedule: Q01DX001 (ip), vehicle: saline): 120 % of control
- T/C (endpoint: mean survival time, dose: 150.0 mg/kg/injection, schedule: Q01DX001 (ip), vehicle: saline): 104 % of control
- T/C (endpoint: mean survival time, dose: 300.0 mg/kg/injection, schedule: Q01DX001 (ip), vehicle: saline): 104 % of control

SMILES: c1ccc(CCCNc2nnnc3ccccc23)cc1
- T/C [7]: 95 % of control
- T/C [8]: 103 % of control
- T/C [9]: 91 % of control

SMILES: CCCCC(CCCC)(C(=O)NC)c1ccccc1
- T/C [2]: 95 % of control
- T/C [4]: 97 % of control
- T/C [6]: 90 % of control

SMILES: CC(C)NCC1CC2c3cccc4[nH]cc(c34)CC2N(C)C1 (stereo not drawn)
- T/C (endpoint: median survival time, dose: 25.0 mg/kg/injection, schedule: Q04DX003 (ip), vehicle: saline with Tween-80): 100 % of control
- T/C (endpoint: median survival time, dose: 50.0 mg/kg/injection, schedule: Q04DX003 (ip), vehicle: saline with Tween-80): 111 % of control
